Assay results reported in patent US7897582B2, “Oligonucleotide compositions and methods for the modulation of the expression of B7 protein” (Isis Pharmaceuticals, Inc., priority 2003, dated 2011).
Strand notation (5' to 3'): a small letter for the sugar, then the base; units joined by * are phosphorothioate-linked, units joined directly phosphodiester-linked; [ ] holds rarer units or linkages, { } end groups; capitals alone tell only the bases. e = 2'-O-(2-methoxyethyl) (MOE); [5mC] = 5-methylcytosine; d = 2'-deoxy (DNA)

Tests used:
human B7-2 = assay: Cell surface expression of B7-2 in transfected COS-7 cells by flow cytometry; assay type: cell-based; parameters: % Control Protein: concentration or dose not given beside the values; conditions: for B7-2 expression relative to untreated cells / inhibitory activity on B7-2 cell surface expression: 200 nM; for B7-2 expression relative to untreated cells: protein expression assay, ISIS 10996 and 2′-O-methyl derivatives; for activity in the B7-2 protein expression assay: ISIS 10373 deletion derivatives, FIG. 4; for % Control Protein: hB7-2 protein, flow cytometry, Table 5; for inhibitory activity on B7-2 cell surface expression: FIG. 3
Method: A T-175 flask was seeded at 75% confluency with COS-7 cells (ATCC accession No. CRL 1651). The plasmid pcB7-1 was introduced into cells by standard calcium phosphate transfection. Following a 4 hour transfection, the cells were trypsinized and seeded in 12-well dishes at 80% confluency. The cells were allowed to adhere to the plastic for 1 hour and were then washed with phosphate-buffered saline (PBS). OptiMEM™ (GIBCO-BRL, Gaithersburg, Md.) medium was added along with 15 μg/mL of Lipofectin™ (GIBCO-BRL, Gaithersburg, Md.) and oligonucleotide at the indicated concentrations. After four additional hours, the cells were washed with phosphate buffered saline (PBS) and incubated with fresh oligonucleotide at the same concentration in DMEM (Dulbecco et al., Virol., 1959, 8, 396; Smith et al., Virol., 1960, 12, 185) with 10% fetal calf sera (FCS).
In order to monitor the effects of oligonucleotides on cell surface expression of B7-1, treated COS-7 cells were harvested by brief trypsinization 24-48 hours after oligonucleotide treatment. The cells were washed with PBS, then resuspended in 100 μL of staining buffer (PBS, 0.2% BSA, 0.1% azide) with 5 μL conjugated anti-B7-1-antibody (i.e., anti-hCD80-FITC, Ancell, Bayport, Minn.; FITC: fluorescein isothiocyanate). The cells were stained for 30 minutes at 4° C., washed with PBS, resuspended in 300 μL containing 0.5% paraformaldehyde. Cells were harvested and the fluorescence profiles were determined using a flow cytometer.
In an initial screen, the ability of hB7-2 oligonucleotides to inhibit B7-2 expression was evaluated by measuring the cell surface expression of B7-2 in transfected COS-7 cells by flow cytometry. The methods used were similar to those given in Example 2, with the exceptions that (1) COS-7 cells were transfected with the plasmids pbcB7-2 or BBG-58, a human ICAM-1 (CD54) expression vector (R&D Systems, Minneapolis, Minn.) introduced into cells by standard calcium phosphate transfection, (2) the oligonucleotides used were those described in Table 2, and (3) a conjugated anti-B7-2 antibody (i.e., anti-hCD86-FITC or anti-CD86-PE, PharMingen, San Diego, Calif.; PE: phycoerythrin) was used during flow cytometry.
B7 antisense oligonucleotides were tested for their effect on cell surface expression of both B7-1 and B7-2. Cell surface expression was measured as described in Example 1. Experiments were done for both human B7 and mouse B7.
The oligonucleotides were screened as described in Example 2 except that the concentration of oligonucleotide was varied as shown in Table 19.

hB7-2 mRNA = assay: Ribonuclease protection assay of hB7-2 mRNA in transfected COS-7 cells; assay type: cell-based, human; parameters: % Control RNA Expression: concentration or dose not given beside the values; conditions: for % Control RNA Expression: hB7-2 mRNA, Table 5
Method: For ribonuclease protection assays, cells were harvested 18 hours after completion of oligonucleotide treatment using a Totally RNA™ kit (Ambion, Austin, Tex.). The probes for the assay were generated from plasmids pcB7-2 (linearized by digestion with Bgl II) and pTRI-b-actin (Ambion Inc., Austin, Tex.). In vitro transcription of the linearized plasmid from the SP6 promoter was performed in the presence of α-^32P-UTP (800 Ci/mmole) yielding an antisense RNA complementary to the 3′ end of B7-2 (position 1044-1391). The probe was gel-purified after treatment with DNase I to remove DNA template. Ribonuclease protection assays were carried out using an RPA II™ kit (Ambion) according to the manufacturer's directions. Total RNA (5 μg) was hybridized overnight, at 42° C., with 10^5 cpm of the B7-2 probe or a control beta-actin probe. The hybridization reaction was then treated, at 37° C. for 30 minutes, with 0.4 units of RNase A and 2 units of RNase T1. Protected RNA was precipitated, resuspended in 10 μL of gel loading buffer and electrophoresed on a 6% acrylamide gel with 50% w/v urea at 20 W. The gel was then exposed and the lanes quantitated using a PhosphorImager (Molecular Dynamics, Sunnyvale, Calif.) essentially according to the manufacturer's instructions.
The oligonucleotides were screened as described in Example 4 except that the concentration of oligonucleotide was varied as shown in Table 13. Mismatch control oligonucleotides were included.

Human B7-2 mRNA = Human B7-2 mRNA expression in electroporated THP-1 cells induced with LPS and dibutyryl cAMP; assay type: cell-based; conditions: THP-1 cells electroporated at 10 micromolar oligonucleotide, LPS and dibutyryl cAMP (500 μM) 16 hours
Source text: The human promonocytic leukaemia cell line, THP-1 (American Type Culture Collection, Manassas, Va.) was maintained in RPMI 1640 growth media supplemented with 10% fetal calf serum (FCS; Life Technologies, Rockville, Md.). A total of 1×10^7 cells were electroporated at an oligonucleotide concentration of 10 micromolar in 2 mm cuvettes, using an Electrocell Manipulator 600 instrument (Biotechnologies and Experimental Research, Inc.) employing 200 V, 1000 μF. Electroporated cells were then transferred to petri dishes and allowed to recover for 16 hrs Cells were then induced with LPS and dibutyryl cAMP (500 μM) for 16 hours. RNA was isolated and processed as described in previous examples.

Row | Substance | % Control Protein (human B7-2) [%] | % Control RNA Expression (hB7-2 mRNA) [%] | further results
1 | 5′-GCG-AGC-TCC-CCG-TAC (antisense GCGAGCTCCCCGTAC; listed as DNA, chemistry not given here) [ISIS 10996, 15-mer derived from ISIS 10373, 0015-0029; 5′-UTR] | – | – | B7-2 expression relative to untreated cells (human B7-2): about 50%; activity in the B7-2 protein expression assay (human B7-2): as (or more) active
2 | 9133 (antisense dT*dT*dC*dC*dA*dG*dG*dT*dC*dA*dT*dG*dA*dG*dC*dC*dA*dT*dT*dA) [compound 9133] | 70.2 | 46.0 | –
3 | 9134 (antisense dC*dA*dT*dA*dA*dG*dG*dT*dG*dT*dG*dC*dT*dC*dT*dG*dA*dA*dG*dT*dG) [compound 9134] | 88.8 | 94.5 | –
4 | 9135 (antisense dT*dT*dA*dC*dT*dC*dA*dT*dG*dG*dT*dA*dA*dT*dG*dT*dC*dT*dT*dT) [compound 9135] | 98.2 | 83.4 | –
5 | 9136 (antisense dA*dT*dT*dA*dA*dA*dA*dA*dC*dA*dT*dG*dT*dA*dT*dC*dA*dC*dT*dT) [compound 9136] | 97.1 | 103.1 | –
6 | 9137 (antisense dG*dG*dA*dA*dC*dA*dC*dA*dG*dA*dA*dG*dC*dA*dA*dG*dG*dT*dG*dG*dT) [compound 9137] | 80.5 | 78.1 | –
7 | 9138 (antisense dC*dC*dG*dT*dA*dC*dC*dT*dC*dC*dT*dA*dA*dG*dG*dC*dT*dC*dC*dT) [compound 9138] | 86.4 | 65.9 | –
8 | 9139 (antisense dC*dC*dC*dA*dT*dA*dG*dT*dG*dC*dT*dG*dT*dC*dA*dC*dA*dA*dA*dT) [compound 9139] | 47.9 | 32.6 | –
9 | 10367 (antisense dG*dC*dA*dC*dA*dG*dC*dA*dG*dC*dA*dT*dT*dC*dC*dC*dA*dA*dG*dG) [compound 10367] | 71.3 | 52.5 | –
10 | 10368 (antisense dT*dT*dG*dC*dA*dA*dA*dT*dT*dG*dG*dC*dA*dT*dG*dG*dC*dA*dG*dG) [compound 10368] | 81.0 | 84.5 | –
11 | 10369 (antisense dT*dG*dG*dT*dA*dT*dG*dG*dG*dC*dT*dT*dT*dA*dC*dT*dC*dT*dT*dT) [compound 10369] | 71.3 | 81.5 | –
12 | 10370 (antisense dA*dA*dA*dA*dG*dG*dT*dT*dG*dC*dC*dC*dA*dG*dG*dA*dA*dC*dG*dG) [compound 10370] | 84.3 | 83.2 | –
13 | 10371 (antisense dG*dG*dG*dA*dG*dT*dC*dC*dT*dG*dG*dA*dG*dC*dC*dC*dC*dC*dT*dT) [compound 10371] | 97.3 | 92.9 | –
14 | 10372 (antisense dC*dC*dA*dT*dT*dA*dA*dG*dC*dT*dG*dG*dG*dC*dT*dT*dG*dG*dC*dC) [compound 10372] | 101.7 | 82.5 | –
15 | 10373 (antisense dT*dG*dC*dG*dA*dG*dC*dT*dC*dC*dC*dC*dG*dT*dA*dC*dC*dT*dC*dC) [compound 10373] | 43.5 | 32.7 | % mRNA EXPRESSION (hB7-2 mRNA; human B7-2 mRNA, Table 12): 24%; % mRNA INHIBITION (hB7-2 mRNA; human B7-2 mRNA, Table 12): 76%
16 | 113131 (antisense e[5mC]*eG*eT*eG*eT*dG*dT*d[5mC]*dT*dG*dT*dG*d[5mC]*dT*dA*eG*eT*e[5mC]*e[5mC]*e[5mC]) [compound 113131] | – | – | % mRNA EXPRESSION (Human B7-2 mRNA): 13%; % mRNA INHIBITION (Human B7-2 mRNA): 87%
17 | 113132 (antisense eG*e[5mC]*eT*eG*e[5mC]*dT*dT*d[5mC]*dT*dG*d[5mC]*dT*dG*dT*dG*eA*e[5mC]*e[5mC]*eT*eA) [compound 113132] | – | – | % mRNA EXPRESSION (Human B7-2 mRNA): 17%; % mRNA INHIBITION (Human B7-2 mRNA): 83%
18 | 113133 (antisense eT*eA*eT*eT*eT*dG*d[5mC]*dG*dA*dG*d[5mC]*dT*d[5mC]*d[5mC]*d[5mC]*e[5mC]*eG*eT*eA*e[5mC]) [compound 113133] | – | – | % mRNA EXPRESSION (Human B7-2 mRNA): 214%
19 | 113134 (antisense eG*e[5mC]*eA*eT*eA*dA*dG*d[5mC]*dA*d[5mC]*dA*dG*d[5mC]*dA*dG*e[5mC]*eA*eT*eT*e[5mC]) [compound 113134] | – | – | % mRNA EXPRESSION (Human B7-2 mRNA): 27%; % mRNA INHIBITION (Human B7-2 mRNA): 73%
20 | 113135 (antisense eT*e[5mC]*e[5mC]*eA*eA*dA*dA*dA*dG*dA*dG*dA*d[5mC]*d[5mC]*dA*eG*eA*eT*eG*e[5mC]) [compound 113135] | – | – | % mRNA EXPRESSION (Human B7-2 mRNA): 66%; % mRNA INHIBITION (Human B7-2 mRNA): 34%
21 | ISIS 10715: scrambled control of # 9133; SEQ ID NO: 76 (antisense dG*dA*dT*dT*dT*dA*dA*dC*dA*dT*dT*dT*dG*dG*dC*dG*dC*dC*dC*dA) [reference compound] | – | – | inhibitory activity on B7-2 cell surface expression (human B7-2): no inhibitory activity
22 | ISIS 10716: scrambled # 9136; SEQ ID NO: 77 (antisense dA*dA*dA*dG*dT*dT*dA*dC*dA*dA*dC*dA*dT*dT*dA*dT*dA*dT*dC*dT) [reference compound] | – | – | inhibitory activity on B7-2 cell surface expression (human B7-2): no inhibitory activity
23 | ISIS 10991: # 10373 deletion derivative, 10-mer, 0015-0024; SEQ ID NO: 85 (antisense dC*dT*dC*dC*dC*dC*dG*dT*dA*dC) | – | – | activity in the B7-2 protein expression assay (human B7-2): little or no activity
24 | ISIS 10992: # 10373 deletion derivative, 11-mer, 0015-0025; SEQ ID NO: 86 (antisense dG*dC*dT*dC*dC*dC*dC*dG*dT*dA*dC) | – | – | activity in the B7-2 protein expression assay (human B7-2): little or no activity
25 | ISIS 10993: # 10373 deletion derivative, 12-mer, 0015-0026; SEQ ID NO: 87 (antisense dA*dG*dC*dT*dC*dC*dC*dC*dG*dT*dA*dC) | – | – | activity in the B7-2 protein expression assay (human B7-2): little or no activity
26 | ISIS 10994: # 10373 deletion derivative, 13-mer, 0015-0027; SEQ ID NO: 88 (antisense dG*dA*dG*dC*dT*dC*dC*dC*dC*dG*dT*dA*dC) | – | – | activity in the B7-2 protein expression assay (human B7-2): little or no activity
27 | ISIS 10995: # 10373 deletion derivative, 14-mer, 0015-0028; SEQ ID NO: 89 (antisense dC*dG*dA*dG*dC*dT*dC*dC*dC*dC*dG*dT*dA*dC) | – | – | activity in the B7-2 protein expression assay (human B7-2): little or no activity
28 | ISIS 11539: fully 2′MO # 10996; SEQ ID NO: 90 (antisense GCGAGCTCCCCGTAC; all 2'-O-methyl, all phosphorothioate, T or U not given here) | – | – | B7-2 expression relative to untreated cells (human B7-2): not active at all
